# Laboratory results: PubChem BioAssay AID504598 (NMMLSC, 2011)
# Calls of active or inactive are those of the source. No rule for the calls is given here.
# Columns and labels:
# [1] = biological target: Bcl-2-related protein A1 (Homo sapiens) (UniProt Q16548); assay: Bcl-2 family partner binding disruption – biochemical, powder compounds, wildtype and mutant Bfl1, panel, dose response (AID 504598); settings: Bfl1/BclB peptide binding displacement assay; for percent span: stronger effect = higher value
# [2] = biological target: Bcl-2-like protein 10 (Homo sapiens) (UniProt Q9HD36); assay: as above; settings: Bfl1/BclB peptide binding displacement assay, BclB wildtype; for percent span: stronger effect = higher value
# [3] = Bfl1 wildtype, deteriorated Bfl1 protein
# Chain of Bcl-2-like protein 10 (Homo sapiens) (Q9HD36 whole entry, looked up): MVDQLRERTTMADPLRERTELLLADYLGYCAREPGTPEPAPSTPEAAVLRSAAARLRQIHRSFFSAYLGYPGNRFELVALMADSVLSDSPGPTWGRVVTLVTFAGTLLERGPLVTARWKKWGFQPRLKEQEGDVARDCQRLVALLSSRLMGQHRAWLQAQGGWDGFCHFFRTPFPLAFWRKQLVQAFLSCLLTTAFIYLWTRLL
# Chain of Bcl-2-related protein A1 (Homo sapiens) (Q16548 whole entry, looked up): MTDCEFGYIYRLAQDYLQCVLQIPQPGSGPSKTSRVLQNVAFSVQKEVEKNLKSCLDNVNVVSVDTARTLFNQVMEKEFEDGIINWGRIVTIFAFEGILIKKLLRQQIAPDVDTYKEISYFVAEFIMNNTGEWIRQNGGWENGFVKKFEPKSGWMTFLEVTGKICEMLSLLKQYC
Compound,percent span ([1]; Bfl1 mutant),percent span ([1]; Bfl1 wildtype),percent span [2],EC50 ([1]; Bfl1 wildtype),"EC50 [1, 3] [µM]",EC50 [2],EC50 ([1]; Bfl1 mutant)
CCOC(=O)CCS(=O)(=O)c1nc(-c2ccccc2)cc(C(F)(F)F)n1,inactive,inactive,inactive,,,,
Cc1cc(-c2cc(-c3ccc(Cl)cc3)nc(N)c2C#N)co1,inactive,,inactive,> 104 µM (inactive),1.06,,
Oc1ccc(NCc2ccccc2OCc2ccccc2)cc1,inactive,inactive,inactive,,0.619,,
Cc1cc(N)ccc1N1CCCC1,inactive,inactive,,,1.86,> 141 µM (inactive),
Cc1ccc(-c2cc(-c3ccc(C)o3)nc(N)c2C#N)cc1,inactive,inactive,inactive,,1.26,,
CN1CCN(C2=C(Cl)C(=O)N(c3ccc(Cl)c(Cl)c3)C2=O)CC1,inactive,inactive,inactive,,,,
Cc1ccc(C=NNC(=O)CSc2nnc(-c3ccc(Cl)cc3)n2-c2ccccc2)o1,inactive,inactive,,,,2.3 µM,
O=C1C(Cl)=C(N2CCN(c3ccccc3[N+](=O)[O-])CC2)C(=O)c2ccccc21,inactive,inactive,inactive,,0.42,,
CNC(CC(=O)c1ccc([N+](=O)[O-])cc1)C(Cl)(Cl)Cl (stereo unspecified),inactive,inactive,inactive,,0.0314,,
Cc1ccc(-c2cc(-c3ccc(F)cc3)c(C#N)c(N)n2)o1,inactive,inactive,inactive,,1.53,,
CCN1C(=O)/C(=C\C=C2/C=CC=CN2CC)SC1=S,inactive,inactive,inactive,,0.483,,
O=C(Nc1ccc2nc(-c3ccco3)c(-c3ccco3)nc2c1)N1CCCCCC1,inactive,inactive,,,0.344,13.6 µM,
O=C1NC(=O)C2(Cc3c(nc4ccccn4c3=O)N3CCCCCC32)C(=O)N1Cc1ccccc1 (stereo unspecified),inactive,inactive,inactive,,,,
COc1cccc(-c2cc(C(F)(F)F)nc(S(C)(=O)=O)n2)c1,inactive,inactive,inactive,,0.259,,
CCOC(=O)CS(=O)(=O)c1nc(-c2ccccc2)cc(C(F)(F)F)n1,inactive,inactive,inactive,,0.365,,
Cc1cc(C)nc(/N=C(/N)Nc2cccc(N)c2)n1,inactive,inactive,inactive,,,,
CNC1CCC(Br)CC(C(=O)/C=C/c2cccc(OC)c2OC)C1=O (stereo unspecified),,,inactive,9.21 µM,18.4,,inactive
CC(C)c1nnc(NC(=O)CCS(=O)(=O)c2nc(-c3cccs3)cc(C(F)(F)F)n2)s1,inactive,inactive,inactive,,,,
CC(=O)c1ccc(NC(=O)c2ccc3nc(-c4ccco4)c(-c4ccco4)nc3c2)cc1,inactive,inactive,,,2.12,inactive,
Cc1ccc(C)n1-c1ccc(Br)cc1C(=O)O,inactive,inactive,inactive,,,,
CN1CCN(C2=C(Cl)C(=O)N(c3cccc(Cl)c3)C2=O)CC1,inactive,inactive,inactive,,,,
